Experimental data from patent publication US20210278408A1, “METHODS OF TREATMENT OF CANCER WITH SUBSTITUTED PYRROLE AND PYRAZOLE COMPOUNDS AND DIAGNOSIS OF CANCERS SUSCEPTIBLE TO TREATMENT WITH SUBSTITUTED PYRROLE AND PYRAZOLE COMPOUNDS” (Bantam Pharmaceutical, LLC, priority 2018, published 2021).

Assays:
Type in all cases: cell-based, human
[1] = tested on: HCT-116; assay: Anti-proliferative activity, CellTiter-Glo, 72 hours: HCT-116; conditions: HCT-116 (colorectal cancer), Cell-Titre-Glo
Procedure: (§1) Anti-proliferative activity of BTM compounds. The anti-proliferative activities of Compound A197 and Compound B19 were compared to 4EGI-1 (a known cancer cell growth inhibitor) in a panel of 99 tumor lines. Methods: A panel of 96 tumor and 3 normal cell lines were tested for sensitivity to the test compound. The cell lines were cultured in standard media and pipetted into 96-well plates at the required plating densities. The cells were acclimated for 24 hours prior to compound testing. Compound was prepared as a stock of 20 mM in DMSO. To prepare dose response curves compound was serially diluted in DMSO and dispensed into the plate wells using a Tecan D300e digital dispenser. The final DMSO concentration was 0.15%. After 72 hours of incubation cell number was determined using the CellTiter-Glo® protocol according to the manufacturers instructions (Promega). In this assay, ATP is measured as a surrogate of cell number. The activity of the compound is determined by comparing untreated cells with treated cells and calculating the % of signal retained. Compound activity is measured as an EC50 of maximum level of efficacy and the two are used to compute an activity area. The table below provides a comparison of activity in a data sample.

[2] = tested on: MDA-MB-157; assay: Anti-proliferative activity, CellTiter-Glo, 72 hours: MDA-MB-157; conditions: MDA-MB-157 (breast cancer); 72 hours; Cell-Titre-Glo
Procedure: as §1

[3] = tested on: NCI-H2122; assay: Anti-proliferative activity, CellTiter-Glo, 72 hours: NCI-H2122; conditions: NCI-H2122 (non-small cell lung cancer), Cell-Titre-Glo
Procedure: as §1

[4] = tested on: NCI-H460; assay: Anti-proliferative activity, CellTiter-Glo, 72 hours: NCI-H460; conditions: NCI-H460 (non-small cell lung cancer), Cell-Titre-Glo
Procedure: as §1

[5] = tested on: HK-2; assay: Anti-proliferative activity, CellTiter-Glo, 72 hours: HK-2; conditions: HK-2 (kidney epilithial), Cell-Titre-Glo
Procedure: as §1

[6] = tested on: Jurkat; assay: Anti-proliferative activity, CellTiter-Glo, 72 hours: Jurkat; conditions: Jurkat (T cell leukemia), Cell-Titre-Glo
Procedure: as §1

[7] = tested on: SK-MEL-28; assay: Anti-proliferative activity, CellTiter-Glo, 72 hours: SK-MEL-28; conditions: SK-MEL-28 (melanoma), Cell-Titre-Glo
Procedure: as §1

[8] = tested on: HUVEC; assay: Anti-proliferative activity, CellTiter-Glo, 72 hours: HUVEC; conditions: HUVEC (primary endolithial cells), Cell-Titre-Glo
Procedure: as §1

[9] = tested on: SU-DHL-4; assay: Anti-proliferative activity, CellTiter-Glo, 72 hours: SU-DHL-4; conditions: SU-DHL-4 (B-cell lymphoma), Cell-Titre-Glo
Procedure: as §1

[10] = tested on: MIA PaCa-2; assay: Anti-proliferative activity, CellTiter-Glo, 72 hours: MIA PaCa-2; conditions: MIA PaCa-2 (pancreactic cancer (carcinoma)), Cell-Titre-Glo
Procedure: as §1

[11] = tested on: A549; assay: Anti-proliferative activity, CellTiter-Glo, 72 hours: A549; conditions: A549 (non-small cell lung cancer), Cell-Titre-Glo
Procedure: as §1

[12] = tested on: LoVo; assay: Anti-proliferative activity, CellTiter-Glo, 72 hours: LoVo; conditions: LoVo (colorectal cancer), Cell-Titre-Glo
Procedure: as §1

[13] = tested on: SU-DHL-10; assay: Anti-proliferative activity, CellTiter-Glo, 72 hours: SU-DHL-10; conditions: SU-DHL-10 (B-cell lymphoma), Cell-Titre-Glo
Procedure: as §1

[14] = tested on: MDA-MB-231; assay: Anti-proliferative activity, CellTiter-Glo, 72 hours: MDA-MB-231; conditions: MDA-MB-231 (breast cancer), Cell-Titre-Glo
Procedure: as §1

[15] = tested on: HT-1080; assay: Anti-proliferative activity, CellTiter-Glo, 72 hours: HT-1080; conditions: HT-1080 (fibrosarcoma), Cell-Titre-Glo
Procedure: as §1

[16] = tested on: SU-DHL-6; assay: Anti-proliferative activity, CellTiter-Glo, 72 hours: SU-DHL-6; conditions: SU-DHL-6 (B-cell lymphoma), Cell-Titre-Glo
Procedure: as §1

With `O=C(O)C(Cc1ccccc1[N+](=O)[O-])=NNc1nc(-c2ccc(Cl)c(Cl)c2)cs1` (mixture of isomers) [Compound 4EGI-1, 4EGI-1, reference compound] as the molecule, how does the IC50 [1] read?
The IC50 was 10.5 µM.

What about the IC50 [2] of the same molecule?
Its IC50 is 11.8 µM.

What about the IC50 [3] of the same molecule?
The IC50 was 13.8 µM.

What about the IC50 [4] of the same molecule?
Its IC50 is 9.46 µM.

What about the IC50 [5] of the same molecule?
Its IC50 is 46 µM.

And the IC50 [6]?
Its IC50 is 13.2 µM.

What about the IC50 [7] of the same molecule?
Its IC50 is 33.4 µM.

What about the IC50 [8] of the same molecule?
The IC50 was 7.99 µM.

What about the IC50 [9] of the same molecule?
The IC50 was 8.42 µM.

And the IC50 [10]?
Its IC50 is 14.3 µM.

And the IC50 [11]?
The IC50 was 21.8 µM.

And the IC50 [12]?
The IC50 was 14.1 µM.

What about the IC50 [13] of the same molecule?
The IC50 was 19.5 µM.

What about the IC50 [14] of the same molecule?
Its IC50 is 5.77 µM.

And the IC50 [15]?
The IC50 was 4.66 µM.

What about the IC50 [16] of the same molecule?
The IC50 was 7.26 µM.
